# Measurements reported in ChEMBL document CHEMBL6153141, “Design, Synthesis, and Mechanism Study of Novel BMX Inhibitors Based on the Core of 1,3,5-Triazin-2-Amine for the Treatment of Gastric Carcinoma” (J Med Chem, 2025).
# Activity calls are given as the source filed them. The rule behind the calls is not given here.
# Legend:
# Cytochrome P450 2C9 = Cytochrome P450 2C9 (Homo sapiens, UniProt P11712); test: Inhibition of CYP2C9 in human liver microsomes using tolbutamide as substrate preincubated for 5 mins followed by NADPH addition and measured after 10 mins by LC-MS/MS analysis; assay type: ADME, Microsome
# Sequence of Cytochrome P450 2C9 (P11712 whole entry): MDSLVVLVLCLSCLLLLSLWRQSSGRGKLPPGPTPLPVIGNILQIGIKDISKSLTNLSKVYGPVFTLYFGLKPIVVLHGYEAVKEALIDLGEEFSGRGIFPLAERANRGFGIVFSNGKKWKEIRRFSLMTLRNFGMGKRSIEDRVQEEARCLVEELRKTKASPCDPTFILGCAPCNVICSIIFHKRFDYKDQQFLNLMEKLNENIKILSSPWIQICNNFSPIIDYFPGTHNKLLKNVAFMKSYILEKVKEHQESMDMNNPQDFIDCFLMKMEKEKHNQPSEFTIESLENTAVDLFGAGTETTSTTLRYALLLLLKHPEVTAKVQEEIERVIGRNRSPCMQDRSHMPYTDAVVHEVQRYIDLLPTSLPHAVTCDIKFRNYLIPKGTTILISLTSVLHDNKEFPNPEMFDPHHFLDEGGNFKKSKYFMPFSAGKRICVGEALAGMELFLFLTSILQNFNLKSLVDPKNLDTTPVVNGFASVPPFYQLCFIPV
# [1] = Toxicity in female BALB/c nude mouse model xenografted with human HGC-27 cells assessed as effect on kidney at 30 mg/kg, ip administered for 21 days by H and E staining based analysis; assay type: organism-based; details: in vivo, 504 h, time 21 day
# HGC-27 [2] = test: Antiproliferative activity against human HGC-27 cells assessed as reduction in number of EdU-positive cells incubated for 48 hrs by confocal laser scanning microscopic analysis; assay type: functional, cell-based; details: dose 5-15 µM
# MGC-803 [3] = test: Induction of apoptosis in human MGC-803 cells assessed as increase in cleaved caspase 3 level incubated for 48 hrs by Western blot analysis; assay type: functional, cell-based; details: dose 10-20 µM
# C6661 = test: Anticancer activity against human C666-1 cells assessed as inhibition of cell proliferation incubated for 72 hrs by MTT assay; assay type: functional, cell-based; details: C6661, 72 h
# [4] = Toxicity in female BALB/c nude mouse model xenografted with human HGC-27 cells assessed as effect on lung at 30 mg/kg, ip administered for 21 days by H and E staining based analysis; assay type: organism-based; details: in vivo, 504 h, time 21 day
# HGC-27 [5] = test: Antitumor activity against human HGC-27 cells xenografted in female BALB/c nude mouse model assessed as reduction in tumor growth at 30 mg/kg/day, ip administered for 21 days relative to control; assay type: functional; design: scale not given: the % may be the effect or the level left; details: time 21 day
# MGC-803 [6] = test: Induction of apoptosis in human MGC-803 cells assessed as increase in apoptotic cells at 10 to 20 uM incubated for 48 hrs by Annexin V-FITC/PI staining based flow cytometric analysis; assay type: functional, cell-based; details: dose 10-20 µM
structure (smiles),measurement,setting,value
C=CS(=O)(=O)N1CCC[C@@H](Nc2nc(N)nc(Nc3cccc(Oc4ccccc4)c3)n2)C1,IC50,Cytochrome P450 2C9,16.8 µM
same,Activity,[1],Non-toxic
same,Activity,HGC-27 [2],Dose-dependent-effect
same,Activity,MGC-803 [3],Dose-dependent-effect
same,IC50,C6661,14.9 µM
same,Activity,[4],Non-toxic
same,Activity,HGC-27 [5],49.93%
same,Activity,MGC-803 [6],Active
